Experimental data reported in ChEMBL document CHEMBL1154671, “Isoquinoline-based analogs of the cancer drug clinical candidate tipifarnib as anti-Trypanosoma cruzi agents” (Bioorg Med Chem Lett, 2009).

Each compound was assayed on Trypanosoma cruzi (assay: Antitrypanosomal activity against Trypanosoma cruzi Tulahuen infected in mouse 3T3 cells). Details: NIH3T3.
Assay type: functional, organism-based
COC(c1ccc(Cl)cc1)(c1ccc2cnccc2c1)c1cncn1C (stereo not given) was tested, and the EC50 was 120 nM. COC(c1ccc(Cl)cc1)(c1ccc2cncc(-c3c(F)cccc3F)c2c1)c1cncn1C (stereo not given) was tested, and the EC50 was 0.9 nM. With COC(c1ccc(Cl)cc1)(c1ccc2cncc(-c3cccc(Cl)c3)c2c1)c1cncn1C (stereo not given) the EC50 was 0.5 nM. Compound CC[C@@H]([C@H](C)O)n1ncn(-c2ccc(N3CCN(c4ccc(OC[C@@H]5CO[C@@](Cn6cncn6)(c6ccc(F)cc6F)C5)cc4)CC3)cc2)c1=O [POSACONAZOLE] has an EC50 of 0.3 nM. With Cn1cncc1[C@@](N)(c1ccc(Cl)cc1)c1ccc2c(c1)c(-c1cccc(Cl)c1)cc(=O)n2C [TIPIFARNIB] the EC50 was 4 nM.
